Reference: patent US6441032B1, “Alpha-(4-Ethoxyphenyl)-N-tert-butylnitrone, pharmaceutical compositions and their medical use” (Centaur Pharmaceuticals, Inc., priority 1997, dated 2002)

Legend:
[1] = test system: Lewis rats with MBP-induced EAE; assay: Prevention of MBP-induced experimental allergic encephalomyelitis; type: in vivo, Lewis rat; settings: 100 mg/kg b.i.d. oral gavage, day 3 to day 16 post-inoculation
Method: Female, Lewis rats of 8 weeks of age (180-250 g) were weighed and then given two intradermal injections (0.1 mL each) of 0.4 mg of M. tuberculin in 0.1 mL incomplete Freunds adjuvant and […] of myelin basic protein in 0.1 mL of saline into the base of the tail. Animals were weighed daily and given a clinical score beginning on Day 8, post inoculation, according to the following criteria:
2.5=Hind limb paralysis and front limb weakness
3.0=Hind and front limb paralysis
4.0=Moribund state or death
On day 3, post-inoculation animals were administered b.i.d either a test compound (100 mg/kg) or 1% methylcellulose vehicle by oral gavage up to and including day 16.

[2] = test system: Male Sprague-Dawley rats injected with Aβ(25-35) and ibotenate; assay: Reduction of cognitive defects due to Aβ-peptide/ibotenate (Morris water maze); type: in vivo, Sprague-Dawley rat; settings: 10 mgl/k by oral gavage daily
Description: The procedures employed in this example are similar to those described in Dornan et al. NeuroReport 5, 165-168 (1993). Male Sprague-Dawley rats (200-300 g) were weighed and given 10 mgl/k of α-(2-ethoxyphenyl)-N-tert-butylnitrone or 1% methylcellulose by oral gavage. One hour later, the rats were stereotaxically injected into the CA1 region of their hippocampus with 8 nmol of Aβ(25-35) and 6 nmol of ibotenate per side (coordinates from bregma −3.6=AP, ±2.2=ML, −3.0=DV from the top of the dura). Controls were injected with PBS (pH 7.4). All injections were 1.5 μL in volume. The animals receiving PBS were orally dosed with 1% methylcellulose. Oral dosing continued daily until the end of the Morris water maze testing.
Nine to eleven days following injection, animals were tested in a Morris water maze task to measure spatial memory and learning. Animals were given three days of testing with four to six trials per day. The last trial on the fourth day was a probe trial where the platform was removed and time in quadrant and annulae crossings were determined. Following the behavioral testing, animals were perfused with 10% neutral formalin. The brain was post-fixed for 1 week in 10% formalin and then sliced for histological evaluation. Image analysis of cresyl violet staining was used to compare the neuronal loss (lesion volume) in the hippocampus between groups.

MRL/MpJ Fas^lpr mice = assay: Reduction of cognitive deficits in autoimmune mice (T-maze task); type: in vivo, mouse; settings: 100 mg/kg oral gavage daily for 8 to 9 weeks, versus untreated mutant mice
Method: MRL/MpJfas^lPr (“mutant mice” or “Fas^lPr”) strains of mice have been described as useful models of Lupus due to their autoimmune lymphoproliferative pathology. In particular, the mutant mice show a cognitive deficit at approximately four months of age, which is not observed at two months of age. See, for example, Forster et al., 1988. Behav. Neural Biology, 49, 139-151.
In the experiment, male MRL/MpJ Fas^lpr and normal MRL/MpJ++mice of 8 weeks of age were weighed and administered 100 mg/kg of the test compound (either α-(2-ethoxyphenyl)-N-tert-butylnitrone or α-(4-ethoxyphenyl)-N-cyclohexylnitrone) or 1% methylcellulose vehicle by oral gavage daily for 8 to 9 weeks. At 4 months of age, the mice were tested for avoidance, discrimination, session criteria and acquisition in a one day T-maze task with a maximum of 25 trials. Criteria was met with four of five trials correct with the last two correct trials being consecutive in avoidance and discrimination.

CCCCCCCCOc1ccc(C=[N+]([O-])C(C)(C)C)c(F)c1 [Example 29, α-(2-Fluoro-4-octyloxyphenyl)-N-tert-butylnitrone]
CNS inflammatory deficit in acute EAE animals [1]: did not significantly reduce the CNS inflammatory deficit

CCOc1cc(C=[N+]([O-])C(C)(C)C)ccc1OC [Example 3, α-(3-Ethoxy-4-methoxyphenyl)-N-tert-butylnitrone]
CNS inflammatory deficit in acute EAE animals [1]: reduced the CNS inflammatory deficit

CC(C)(C)[N+]([O-])=Cc1ccc(OCc2ccccc2)cc1 [Example 41, α-(4-Benzyloxyphenyl)-N-tert-butylnitrone]
CNS inflammatory deficit in acute EAE animals [1]: reduced the CNS inflammatory deficit

CCOc1cc(C=[N+]([O-])C(C)C)ccc1OC [Example 17, α-(3-Ethoxy-4-methoxyphenyl)-N-isopropylnitrone]
CNS inflammatory deficit in acute EAE animals [1]: reduced the CNS inflammatory deficit

CCOc1ccccc1C=[N+]([O-])C(C)(C)C [Example 7, α-(2-Ethoxyphenyl)-N-tert-butylnitrone]
Aβ peptide/ibotenate-induced learning deficit [2]: reduced the Aβ peptide/ibotenate-induced learning deficit | acquisition in T-maze task (MRL/MpJ Fas^lpr mice): reduced acquisition values | avoidance in T-maze task (MRL/MpJ Fas^lpr mice): acquired avoidance skills earlier | CNS inflammatory deficit in acute EAE animals [1]: did not significantly reduce the CNS inflammatory deficit

CCCC[N+]([O-])=Cc1ccc(OCC)cc1 [Example 10, α-(4-ethoxyphenyl)-N-n-butylnitrone]
CNS inflammatory deficit in acute EAE animals [1]: did not significantly reduce the CNS inflammatory deficit

CCOc1cc(C=[N+]([O-])C(C)(C)CC(C)(C)C)ccc1OC [Example 45, α-(3-Ethoxy-4-methoxyphenyl)-N-tert-octylnitrone]
CNS inflammatory deficit in acute EAE animals [1]: reduced the CNS inflammatory deficit

CCOc1ccc(C=[N+]([O-])C(C)(C)C)cc1 [Example 4, α-(4-Ethoxyphenyl)-N-tert-butylnitrone]
CNS inflammatory deficit in acute EAE animals [1]: did not significantly reduce the CNS inflammatory deficit

CCOc1ccc(C=[N+]([O-])C2CCCCC2)cc1 [Example 11, α-(4-Ethoxyphenyl)-N-cyclohexylnitrone]
acquisition in T-maze task (MRL/MpJ Fas^lpr mice): reduced acquisition values | avoidance in T-maze task (MRL/MpJ Fas^lpr mice): acquired avoidance skills earlier | CNS inflammatory deficit in acute EAE animals [1]: reduced the CNS inflammatory deficit

CCCCCCOc1ccc(C=[N+]([O-])C2CCCCC2)cc1OCC [Example 22, α-(3-Ethoxy-4hexyloxyphenyl)-N-cyclohexylnitrone]
CNS inflammatory deficit in acute EAE animals [1]: reduced the CNS inflammatory deficit

[O-][N+](=Cc1ccc(OCc2ccccc2)cc1)C1CCCC1 [Example 42, α-(4-Benzyloxyphenyl)-N-cyclopentylnitrone]
CNS inflammatory deficit in acute EAE animals [1]: reduced the CNS inflammatory deficit

CCOc1ccc(C=[N+]([O-])C2CCCCC2)cc1OC [Example 15, α-(4-Ethoxy-3-methoxyphenyl)-N-cyclohexylnitrone]
CNS inflammatory deficit in acute EAE animals [1]: did not significantly reduce the CNS inflammatory deficit

COc1cc(C=[N+]([O-])C(C)(C)C)ccc1OCc1ccccc1 [Example 5, α-(4-Benzyloxy-3-methoxyphenyl)-N-tert-butylnitrone]
CNS inflammatory deficit in acute EAE animals [1]: did not significantly reduce the CNS inflammatory deficit
